{
  "source": "ChEMBL document CHEMBL4038345",
  "about": "“Design, Synthesis, and Biological Evaluation of Novel Selenium-Containing Isocombretastatins and Phenstatins as Antitumor Agents” (J Med Chem, 2017)",
  "key": {"[1]": {"system": "A549", "assay": "Induction of apoptosis in human A549 cells assessed as early apoptotic cells at 5 nM for 24 hrs by annexin V-FITC/propidium iodide staining-based flow cytometry analysis (reference value: 0.82%)", "assay_type": "functional"}, "[2]": {"system": "A549", "assay": "Disruption of mitochondrial membrane potential in human A549 cells after 24 hrs by JC1 staining-based flow cytometry method", "assay_type": "functional, cell-based"}, "[3]": {"assay": "Metabolic stability in Sprague-Dawley rat liver microsomes assessed as compound remaining after 150 mins in presence of NADPH by UV-based HPLC-MS/MS analysis", "assay_type": "ADME, microsome", "conditions": "Sprague-Dawley, liver microsomes, read-out: Stability"}, "[4]": {"system": "A549", "assay": "Induction of apoptosis in human A549 cells assessed as late apoptotic cells at 10 nM for 24 hrs by annexin V-FITC/propidium iodide staining-based flow cytometry analysis", "assay_type": "functional"}, "[5]": {"system": "A549/CDDP", "assay": "Antiproliferative activity against human A549/CDDP cells after 48 hrs by MTT assay", "assay_type": "functional, cell-based"}, "[6]": {"system": "A549", "assay": "Induction of apoptosis in human A549 cells assessed as live cells at 10 nM for 48 hrs by annexin V-FITC/propidium iodide staining-based flow cytometry analysis (reference value: 99.01%)", "assay_type": "functional"}, "[7]": {"species_on_record": "Sus scrofa", "assay": "(§1) Inhibition of porcine brain tubulin polymerization measured every 60 seconds for 90 mins by DAPI staining-based fluorescence assay"}, "[8]": {"assay": "as §1", "parameters": "species or system Sus scrofa"}, "[9]": {"system": "MDA-MB-231", "assay": "Antiproliferative activity against human MDA-MB-231 cells after 48 hrs by MTT assay", "conditions": "MDA-MB-231, 48 h"}, "[10]": {"system": "A549", "assay": "Cell cycle arrest in human A549 cells assessed as increase in accumulation of cells at G2/M phase at 5 to 10 nM after 24 hrs by propidium iodide staining-based flow cytometry method", "assay_type": "functional"}, "[11]": {"system": "A549", "assay": "Induction of apoptosis in human A549 cells assessed as necrotic cells at 5 nM for 48 hrs by annexin V-FITC/propidium iodide staining-based flow cytometry analysis (reference value: 0.02%)", "assay_type": "functional"}, "[12]": {"assay": "Metabolic stability in Sprague-Dawley rat liver microsomes assessed as compound remaining after 60 mins in presence of NADPH by UV-based HPLC-MS/MS analysis", "assay_type": "ADME, microsome", "conditions": "read-out: Stability"}, "[13]": {"system": "HCT-116", "assay": "cells", "conditions": "Homo sapiens, HCT-116, 48 h"}, "[14]": {"system": "A549", "assay": "Disruption of mitochondrial membrane potential in human A549 cells assessed as intact mitochondrial membrane at 5 nM after 24 hrs by JC1 staining-based flow cytometry method (reference value: 99.18%)", "assay_type": "functional"}, "[15]": {"system": "A549", "assay": "Induction of apoptosis in human A549 cells assessed as late apoptotic cells at 5 nM for 48 hrs by annexin V-FITC/propidium iodide staining-based flow cytometry analysis", "assay_type": "functional"}, "[16]": {"assay": "Metabolic stability in Sprague-Dawley rat liver microsomes assessed as compound remaining after 30 mins in presence of NADPH by UV-based HPLC-MS/MS analysis", "assay_type": "ADME, microsome", "conditions": "read-out: Stability"}, "[17]": {"system": "A549", "assay": "Induction of apoptosis in human A549 cells assessed as late apoptotic cells at 1 nM for 24 hrs by annexin V-FITC/propidium iodide staining-based flow cytometry analysis", "assay_type": "functional"}, "[18]": {"system": "A549", "assay": "Induction of apoptosis in human A549 cells assessed as live cells at 1 nM for 24 hrs by annexin V-FITC/propidium iodide staining-based flow cytometry analysis (reference value: 99.15%)", "assay_type": "functional"}, "[19]": {"system": "A549", "assay": "Induction of apoptosis in human A549 cells assessed as live cells at 5 nM for 24 hrs by annexin V-FITC/propidium iodide staining-based flow cytometry analysis (reference value: 99.15%)", "assay_type": "functional"}, "[20]": {"assay": "Antiproliferative activity against human HepG2/DOX cells after 48 hrs by MTT assay", "assay_type": "functional, cell-based"}, "[21]": {"system": "A549", "assay": "cells", "conditions": "Homo sapiens, A549, 48 h"}},
  "data": [
    {"molecule": "C=C(c1ccc(OC)c(O)c1)c1cc(OC)c(OC)c([Se]C)c1", "values": [
      {"measurement": "Activity", "setting": "[1]", "result": 31.36, "unit": "%"},
      {"measurement": "Activity", "setting": "[2]", "result": "Dose-dependent effect"},
      {"measurement": "remaining at 2.5 h", "setting": "[3]", "result": 25.8, "unit": "%"},
      {"measurement": "Activity", "setting": "[4]", "result": 1.45, "unit": "%"},
      {"measurement": "IC50", "setting": "[5]", "result": 0.0344, "unit": "µM"},
      {"measurement": "Activity", "setting": "[6]", "result": 23.45, "unit": "%"},
      {"measurement": "inhibition", "setting": "[7]", "result": "Dose-dependent effect"},
      {"measurement": "IC50", "setting": "[8]", "result": 1.38, "unit": "µM"},
      {"measurement": "IC50", "setting": "[9]", "result": 0.0022, "unit": "µM"},
      {"measurement": "Activity", "setting": "[10]", "result": 70, "unit": "%"},
      {"measurement": "Activity", "setting": "[11]", "result": 10.45, "unit": "%"},
      {"measurement": "remaining at 1 h", "setting": "[12]", "result": 62.3, "unit": "%"},
      {"measurement": "IC50", "setting": "[13]", "result": 0.012, "unit": "µM"},
      {"measurement": "Activity", "setting": "[14]", "result": 57.63, "unit": "%"},
      {"measurement": "Activity", "setting": "[15]", "result": 24.73, "unit": "%"},
      {"measurement": "remaining at 0.5 h", "setting": "[16]", "result": 81.1, "unit": "%"},
      {"measurement": "Activity", "setting": "[17]", "result": 0.01, "unit": "%"},
      {"measurement": "Activity", "setting": "[18]", "result": 96.34, "unit": "%"},
      {"measurement": "Activity", "setting": "[19]", "result": 64.43, "unit": "%"},
      {"measurement": "IC50", "setting": "[20]", "result": 0.0203, "unit": "µM"},
      {"measurement": "IC50", "setting": "[21]", "result": 0.0039, "unit": "µM"}
    ]}
  ]
}
